Our source for the melting point values is a melting point compilation (Tetko et al.; mined from patent text by program, amines drawn as free bases though some values may be those of a salt).

For `CCN(CC)Cc1nc2cc(OC)c(OC)cc2c(-c2ccc(OC)c(OC)c2)c1C(=O)c1ccccc1`, the melting point (commonly the temperature of the solid-liquid transition) is 150 to 151 °C.

`CC(Oc1ncn(-c2cccc(C(F)(F)F)c2)n1)C(=O)O` (configuration not stated) gave a melting point of 206 to 208 °C.

Consider `O=C(CCCN1CCCCC1)c1ccc2c(c1)Cc1cc(C(=O)CCCN3CCCCC3)ccc1-2`, for which the melting point lay in the range of 157 to 159 °C.

`O=C(O)/C=C/C=C(c1ccc(Cl)cc1)c1ccc(Cl)cc1` gave a melting point of 213 to 215 °C.

`Cn1nc(-c2cnc3[nH]cc(C(=O)NC4CCOC4)c3n2)c2ccc(Cl)cc21` (configuration not stated) registered a melting point of 345 to 347 °C.

For the compound `Clc1ccc(-c2nc3ccccc3nc2Cl)c(Cl)c1`, the melting point lay within 140 to 150 °C.

In the case of `CS(=O)(=O)CCCOc1cccc2c1ccn2-c1ccnc(NC2CCC(C(=O)N3CCC(CN)CC3)CC2)n1` (configuration not stated), the melting point was in the range of 124 to 126 °C.

For `COc1cc(CCN)ccc1O`, the melting point fell in the range of 156 to 158 °C.

For the compound `O=C(Nc1ccccc1Sc1c(Cl)cncc1Cl)N[C@@H](Cc1ccc(NC(=O)c2c(Cl)cncc2Cl)cc1)C(=O)O`, the melting point is 211 °C.

In the case of `CCOC(=O)COc1ccc(C=O)c(O)c1`, the melting point lay within 97 to 99 °C.

In turn, `S=C(NN=Cc1cccc(-c2ccccc2Br)n1)NN1CCCC1` returned a melting point of 157 to 159 °C.

`COc1ccc(C(=O)c2ccc(F)cc2F)c(Cl)c1Cl` yielded a melting point of 139 to 141 °C.

With `CCOC(=O)c1cn(C2COC2)c2c(F)c(F)c(F)cc2c1=O`, the melting point lay in the range of 146 to 147 °C.

As for `O=C(O)C1=Cc2cc(OCc3ccccc3)ccc2OC1`, the melting point lay within 184 to 189 °C.

`COC(=O)c1[nH]c(SCc2ccccn2)nc1CCNC(=O)[C@H](Cc1ccccc1)NC(=O)N(Cc1ccccc1)NC(=O)C(C)(C)C` displayed a melting point of 171 to 172 °C.

Take `CC(=O)NCC1CC(c2ccc(Br)cc2)=NO1` (configuration not stated): the melting point was in the range of 198 to 199 °C.

On to `CCC(C)(C)c1cc(-c2cccc(CC3SC(N4CCCC4)=NC3=O)c2)ccc1O` (configuration not stated), for which the melting point is 216 to 219 °C.

In the case of `Cc1ccc(Sc2ccnc3sc(C(N)=O)cc23)cc1`, the melting point lay within 280 to 282 °C.

`O=C(NO)c1ccc2c(c1)CN(C(=O)c1ccc3ncccc3c1)C2`: the melting point was 208 to 210 °C.

As for `COC(=O)c1ccc(C(=O)Nc2ccccc2OC)cc1`, the melting point lay in the range of 119 to 121 °C.

Compound `CCOc1ccc2[nH]c(=O)n(C(C)(C)CC(C)(C)C)c2c1` returned a melting point of 108 °C.

Consider `O=C1OCCC12Oc1ccc([N+](=O)[O-])cc1C2=O` (configuration not stated), for which the melting point was in the range of 199 to 200 °C.

For the compound `O=C1Nc2ccc(NC(=O)C(=O)N3CCC(Cc4ccc(F)cc4)CC3)cc2C1=O`, the melting point lay in the range of 205 to 206 °C.

As to `Cn1nc(-c2ccc(N)c([N+](=O)[O-])c2)c2ccccc21`, the melting point turned out to be 231 °C.

In turn, `CNc1c(F)cc2c(=O)c(C(=O)O)cn(-c3nc(N)c(F)cc3F)c2c1Br` yielded a melting point of 205 to 208 °C.

`Cn1c(=O)c(=O)[nH]c2cccnc21`: the melting point was in the range of 238 to 239 °C.

Compound `CCNC(=O)c1sc(N2CCN(Cc3ccc(OC(F)(F)F)cc3)C2=O)nc1C` displayed a melting point of 139 to 140 °C.

With `COC(=O)c1cnn(C)c1Cl`, the melting point is 69 to 70 °C.

As to `CC(=Cn1ccnc1)C(=O)c1ccc(Cl)cc1Cl`, the melting point lay in the range of 129 to 130 °C.

Take `COC(=O)c1nccc(N)n1`: the melting point is 140 to 142 °C.

With `C/C(=C(\C#N)C(N)=S)N1CCCN(c2cccc(Cl)c2)CC1`, the melting point is 133 to 134 °C.

Compound `NNN=CNCCC(=O)O` had a melting point of 177 to 179 °C.

The compound `CCCCNC(=O)N1Cc2ccccc2CCC1=O` came in with a melting point of 84.5 to 85 °C.

Compound `O=[N+]([O-])c1cnccc1NCc1c(F)cccc1F` displayed a melting point of 148 to 149 °C.

The compound `O=C(Cl)CCCC(=O)Cl` yielded a melting point of 60.6 to 61.4 °C.

`Nc1nc(Oc2c(Cl)cccc2Cl)nc2nc(-c3ccco3)nn12`: the melting point fell in the range of 270 to 272 °C.

Regarding `COc1ccc(Sc2ccncc2)c(N)c1`, the melting point lay in the range of 93 to 94 °C.
